What was measured:
[1] = 1H-NMR of drugs and model linker compound with CMP-OMe before and after irradiation; format: physicochemical
Excerpt: The cleavage of aminoacrylate linkers after irradiation was supported by the increased coumarin fluorescence of 9 by irradiation (FIGS. 14-21). The unique peak of each compound was integrated against the peak of CMP-OMe (four protons of CMP-OMe at 9.7 ppm, FIG. 14), which was known to be inert to singlet oxygen oxidation. […] However, we observed 77% decrease of the proton peak of the aminoacrylate linker after the irradiation (FIG. 21). […] PD 9 had negligible coumarin emission compared to that of free coumarin at the equimolar concentration. In the presence of 10 μM of 9, MCF-7 cells were incubated for 24 h to activate dPS. Then, the samples were irradiated by visible light (540±10 nm, 8 mW/cm^2, 30 min). […] The released free coumarin was also detected and quantified by HPLC based on the standard curve of free coumarin. As such, almost 99% of 9 released coumarin while only 64% of dPS of 9 were activated when irradiated.

[2] = Photooxygenation kinetics (DPBF fluorescence, Rose Bengal, Stern-Volmer analysis); format: physicochemical; conditions: acetone, 15° C., 540±10 nm
Description: Fluorescence emission was used to monitor the disappearance of 1,3-diphenylisobenzofuran (DPBF) which was recorded on a LS 50 B luminescence spectrometer (Perkin Elmer, USA). DPBF (5×10^−2 M) and Rose Bengal (0.5×10^−5 M) stock solution in dry acetone was prepared. In addition, varying known concentrations of 2,3-dimethylbutene, (E)-N-phenyl-3-(piperidin-1-yl)acrylamide (a model compound with aminoacrylate linker) and Combretastatin A-4 (CA-4) were freshly prepared. Using a tungsten-halogen light source filtered at 540±10 nm (Lumacare), the appropriate solution of DPBF-Rose Bengal with or without a substrate placed in a fluorescence cuvette and held in a thermostated cell at 15° C. with stirring was irradiated with 0.1 mW/cm^2 light intensity at 30 sec interval. The fluorescence intensity of DPBF at 455 nm as a function of time provided the rate of photooxygenation of DPBF. […] As such, the reaction kinetics could be determined in light of the following analysis.
Using the above kinetic analysis and equation (5), the second order rate constant (k) of the aminoacrylate linker was experimentally determined to be 2.5×10^7 M^−1s^−1, wherein k=kr+kq
Then, β value was calculated from the plot of S0/Sx vs. [A]. […] From the kd value of the solvent (kd of acetone=38,400 s^−1), β value of A was calculated. […]

MCF-7 cells [3] = test: Dark toxicity, MTT cell viability (Example 4); format: cell-based; conditions: Homo sapiens, MCF7, light or radiation study; MCF-7, 96 hr, no irradiation
Description: MCF-7 cells (5,000 cells/well) were seeded in 96 well plates. After the plates were incubated for 24 hr, the culture medium was aspirated and the cells were washed with cold PBS (100 μL) once. Then, prodrug in the 200 μL culture media was added to cells. The final concentrations ranging from 1 nM to 1 μM were used to perform concentration dependent cell viability and 25 nM prodrug was used to perform time dependent drug release study. After 96 hr incubation, the cell viability was determined by MTT assay detailed below. The experiments were performed in triplicate. IC50 values were calculated with GraphPad Prism 5.
Cell viability was assessed by MIT assay.^89 In brief, after thoroughly washing the cells 2× with PBS buffer, the cells were treated with 200 μL 0.5 mg/mL MIT (3-(4,5-dimethylthiazol-2-yl)-2,5-diphenyltetrazolium bromide, a yellow tetrazole). Subsequently, the cells were incubated at 37° C. under a humidified atmosphere of 5% CO2 for 4 h. After 4 h of incubation, the solution from each well was taken out, and washed with PBS one time and added 100 μL DMSO. The plates were shaken at room temperature for 10 min and read immediately at 570 nm on a microplate reader (Spectra max, Molecular devices). Cell viability (%) was expressed as a ratio of treated cells to control cells.

tubulin = target: T1, tubulin (Sus scrofa, UniProt P02554); test: Fluorescence-based tubulin polymerization assay; format: biochemical
T1 construct: purchased Cytoskeleton, Inc. BK011P
Description: Paclitaxel and CA4 were used as positive control drugs (a polymerization enhancer and an inhibitor, respectively) in addition to the negative control group (FIG. 32).
The fluorescence-based tubulin polymerization was determined by using a kit supplied by Cytoskeleton, Inc. (cat #=BK011P). Its basic principle is that the fluorescence reporter increases as it is incorporated into microtubules during the course of polymerization. The assay was performed following the experimental procedure as described in version 2.1 of the tubulin polymerization assay kit manual. Briefly, the test drug (final concentration=3 μM) was added to a mixture of tubulin and GTP in a buffer solution, and the reaction mixture was incubated at 37° C. Fluorescence was monitored (excitation=360 nm and emission=450 nm) by using a fluorescence plate reader (SpectraMax Gemini EM, Molecular device). Paclitaxel and CA4 were included in the assay as positive controls in addition to the negative control (vehicle only).

MCF-7 cells [4] = test: Dark toxicity, MTT (Example 5); format: cell-based; conditions: Homo sapiens, MCF7, 72 h; MCF-7, dark, 3 days; read-out: IC50D (dark toxicity)
Description: It seemed that the bulky groups, CMP-L and CMP-NCL, reduced the cytotoxic activity of CA4, presumably through the interference of its binding to tubulin as estimated by the modeling study.
MCF-7 cells were maintained in minimum essential medium (α-MEM) supplemented with 10% bovine growth serum, 2 mM L-glutamine, 50 units/mL penicillin G, 50 μg/mL streptomycin and 1.0 μg/mL fungizone. MCF-7 cells (5,000 cells/well) were seeded on 96-well plates in the medium and then incubated for 24 h at 37° C. in 5% CO2. Stock solutions (2 mM) were prepared in DMSO. The stocks were further diluted with medium to get necessary final concentrations. The diluted solution (10 μL) was then added to each well (190 μL). The plates were incubated for 24 h and then removed from the incubator. For the phototoxicity study: The plate without a cover was placed on an orbital shaker (Lab-line, Barnstead International) and irradiated by using a diode laser (690 nm, 5.6 mW/cm^2) for 30 min. To ensure uniformity of the light during the irradiation, each plate was shaken gently on an orbital shaker. For the dark toxicity study: Plates were kept in the dark for 30 min, and then returned to the incubator. Cell viability was determined after 3 days by using the MTT assay. Briefly, a 10 μL solution of MTT (10 mg in 1 mL PBS buffer) was added to each well and the plate was incubated for 4 h. Then, the MTT solution was removed and the cells were dissolved in 200 μL of DMSO and the absorbance within each well was measured at 570 nm with background subtraction at 650 nm. The cell viability was then quantified by measuring the absorbance of the treated wells compared to that of the untreated wells (controls) and expressed as a percentage.

colon 26 cells = test: Antitumor efficacy study, s.c. colon 26 tumors; format: in vivo, BALB/c mice; conditions: similar dose, pilot studies
Description: The antitumor effects of the prodrugs after irradiation were evaluated by using a mouse tumor model: BALB/c mice having s.c. tumors produced by injection of colon 26 cells. After 1.5 h-post i.p. injection of prodrugs, each tumor was irradiated by 690 nm diode laser (360 J/cm^2=200 mW/cm^2 for 30 min) on days 0, 1 and 2. The treatment conditions were determined from pilot studies although those conditions might not have been the optimal conditions.
Four- to six-week-old BALB/c mice (18-20 g, Charles River Laboratories, Inc.) were used for the murine tumor model. The mice were implanted s.c. with 2×10^6 colon 26 cells in PBS (100 μL) on the lower back-neck region. Tumor growth was monitored with digital caliper. Two dimensions l and w (l: the longest axis of tumor and w: the axis perpendicular to l) were used to calculate tumor volume (lw^2/2). Mice with a tumor of the diameter 3-5 mm were used for the experiments.
Samples were filtered using 0.2 μm sterile syringe filter. To each mouse, 200 μL of sample was injected via i.p. once a day on day 0, 1, and 2. Then, 1 h 30 min later mice were anesthetized with ketamine 80 mgkg^−1 and xylazine 6 mgkg^−1, i.p. injection. Tumors were irradiated with a 690 nm diode laser at 200 mW/cm^2 for 30 min (360 J/cm^2). Tumor size was measured with the digital caliper every day after the treatment.

T1 sequence (P02554 whole entry): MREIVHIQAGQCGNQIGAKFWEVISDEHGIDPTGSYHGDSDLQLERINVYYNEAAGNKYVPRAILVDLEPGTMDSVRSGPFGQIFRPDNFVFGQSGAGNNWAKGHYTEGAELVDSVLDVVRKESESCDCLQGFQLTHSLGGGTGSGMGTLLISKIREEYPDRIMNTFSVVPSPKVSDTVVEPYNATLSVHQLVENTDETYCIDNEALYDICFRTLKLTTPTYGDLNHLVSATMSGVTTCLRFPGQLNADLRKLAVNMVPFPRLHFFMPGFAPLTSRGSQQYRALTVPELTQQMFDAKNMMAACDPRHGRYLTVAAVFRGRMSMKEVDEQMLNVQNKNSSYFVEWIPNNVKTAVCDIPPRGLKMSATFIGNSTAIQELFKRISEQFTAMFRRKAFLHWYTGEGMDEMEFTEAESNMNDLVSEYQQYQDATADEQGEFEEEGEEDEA
T1 sequence (P02550 whole entry partner): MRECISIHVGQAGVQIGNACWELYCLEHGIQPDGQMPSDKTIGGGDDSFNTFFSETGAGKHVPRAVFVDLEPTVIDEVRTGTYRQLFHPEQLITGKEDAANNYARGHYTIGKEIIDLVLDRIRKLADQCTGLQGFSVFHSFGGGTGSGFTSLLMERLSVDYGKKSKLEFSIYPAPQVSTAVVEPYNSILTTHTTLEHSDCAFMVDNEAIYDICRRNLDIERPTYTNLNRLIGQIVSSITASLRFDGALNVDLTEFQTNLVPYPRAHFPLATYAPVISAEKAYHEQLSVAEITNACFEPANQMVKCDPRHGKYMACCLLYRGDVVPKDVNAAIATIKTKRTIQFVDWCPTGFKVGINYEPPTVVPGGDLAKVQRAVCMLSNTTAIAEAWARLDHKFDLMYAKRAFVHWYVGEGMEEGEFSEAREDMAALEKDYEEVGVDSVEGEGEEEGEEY

In the case of `O=C(/C=C/N1CCCCC1)Nc1ccccc1` [Compound 9 (Example 3), (E)-N-Phenyl-3-(piperidin-1-yl)acrylamide], the “Decrease of the proton peak after irradiation” value ([1]; CDCl3, 1H-NMR) is reported as 77% and the “Second order rate constant (k = kr+kq) with singlet oxygen” value [2] is reported as 2.5e+07 M⁻¹ s⁻¹.
In the case of `COc1ccc(/C=C\c2cc(OC)c(OC)c(OC)c2)cc1O` [CA-4, Combretastatin A-4], the “Oxidation under the irradiation condition” value ([1]; 1H-NMR) is reported as “not oxidized at all”, the IC50 (MCF-7 cells [3]) is reported as 8 nM and the “Pattern of kinetic trace of tubulin polymerization” value (tubulin; 3 μM) is reported as “inhibitor”. The inhibition at 3 µM (tubulin; read-out: Inhibition of tubulin polymerization) was 100%, the IC50 (MCF-7 cells [4]) was 9 nM and the “Significant tumor growth delay by CA4 itself” value (colon 26 cells) was “not seen”.

Reference: patent publication US9839690B2, “Singlet oxygen-labile linkers and methods of production and use thereof” (The Board of Regents of the University of Oklahoma, priority 2012, dated 2017)
